Test results from patent publication US20240409475A1, “INTERMEDIATE-RELEASE FERTILIZERS AND METHODS FOR MAKING SAME” (OSTARA NUTRIENT RECOVERY TECHNOLOGES INC., priority 2021, published 2024).

Test system: canola
Test: canola germination as a function of phosphate application rate
Type: in vivo
Conditions: media containing increasing concentrations of phosphate application
Source text: FIG. 8 is a graph showing germination rate for canola as a function of phosphate applicant rate for various sources of phosphorus listed in Table 2.

Structure (SMILES)	germination of canola seedlings
N.N.O=P(O)(O)O [DAP, Di-Ammonium Phosphate]	inhibited at even the lowest application rate
N.O=P(O)(O)O [MAP, Mono-Ammonium Phosphate]	inhibited at even the lowest application rate
